Source: patent US20130121994A1, “TRIAZOLOPYRIDINE DERIVATIVES” (BAYER INTELLECTUAL PROPERTY GMBH, priority 2009, published 2013)

Target: T1, human kinase Mps-1 (Homo sapiens, UniProt P33981)
T1 construct: N-terminally GST-tagged human full length recombinant Mps-1 kinase; GST (N); purchased Invitrogen, Karslruhe, Germany PV4071
T1 sequence (P33981 1-857): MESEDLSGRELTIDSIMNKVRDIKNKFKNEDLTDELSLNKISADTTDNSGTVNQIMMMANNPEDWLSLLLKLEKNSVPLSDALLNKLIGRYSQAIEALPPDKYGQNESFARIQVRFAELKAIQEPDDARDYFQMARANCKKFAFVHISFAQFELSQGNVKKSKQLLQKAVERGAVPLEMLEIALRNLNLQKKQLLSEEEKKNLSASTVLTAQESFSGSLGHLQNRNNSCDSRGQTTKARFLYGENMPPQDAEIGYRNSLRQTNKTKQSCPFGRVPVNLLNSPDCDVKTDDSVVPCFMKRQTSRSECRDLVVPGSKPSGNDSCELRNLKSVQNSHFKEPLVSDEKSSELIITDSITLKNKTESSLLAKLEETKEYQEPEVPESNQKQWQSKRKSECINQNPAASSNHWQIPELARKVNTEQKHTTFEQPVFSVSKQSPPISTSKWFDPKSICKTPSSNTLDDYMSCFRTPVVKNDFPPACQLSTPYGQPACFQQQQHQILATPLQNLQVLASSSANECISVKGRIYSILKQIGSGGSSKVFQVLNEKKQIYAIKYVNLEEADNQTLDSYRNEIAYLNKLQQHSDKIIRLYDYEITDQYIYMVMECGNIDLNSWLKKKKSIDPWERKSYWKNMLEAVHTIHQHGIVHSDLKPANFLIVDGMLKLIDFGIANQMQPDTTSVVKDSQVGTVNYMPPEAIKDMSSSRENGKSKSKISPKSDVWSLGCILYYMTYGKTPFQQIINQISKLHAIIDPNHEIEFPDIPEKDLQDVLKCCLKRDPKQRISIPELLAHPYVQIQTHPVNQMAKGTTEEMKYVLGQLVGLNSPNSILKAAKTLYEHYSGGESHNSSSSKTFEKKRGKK
Assay: Mps-1 kinase assay (HTRF)
Format: biochemical
Method: The human kinase Mps-1 phosphorylates a biotinylated substrate peptide. Detection of the phosphorylated product is achieved by homogenous time-resolved fluorescence resonance energy transfer (HTRF) from Europium-labelled anti-phospho-Serine/Threonine antibody as donor to streptavidin labelled with cross-linked allophycocyanin (SA-XLent) as acceptor. Compounds are tested for their inhibition of the kinase activity.
N-terminally GST-tagged human full length recombinant Mps-1 kinase (purchased from Invitrogen, Karslruhe, Germany, cat. no PV4071) was used. As substrate for the kinase reaction a biotinylated peptide of the amino-acid sequence […] (C-terminus in amide form, purchased from Biosynthan GmbH, Berlin) was used.
The concentration of Mps-1 in the assay was adjusted to the activity of the enzyme lot and was chosen appropriate to have the assay in the linear range, typical enzyme concentrations were in the range of about 1 nM (final conc. in the 5 μl assay volume).
The resulting mixture was incubated 1 h at 22° C. to allow the binding of the phosphorylated peptide to the anti-phospho(Ser/Thr)-Europium-antibody. Subsequently the amount of phosphorylated substrate was evaluated by measurement of the resonance energy transfer from the Europium-labelled anti-phospho(Ser/Thr) antibody to the Streptavidin-XLent.

| Compound | IC50 [nM] |
| --- | --- |
| COc1cc(C(=O)N(C)CCN(C)C(C)=O)ccc1Nc1nc2ccc(-c3ccc(C(=O)NCC(F)(F)F)cc3)cn2n1 [Example 11.020, N-{2-[acetyl(methyl)amino]ethyl}-3-methoxy-N-methyl-4-[(6-{4-[(2,2,2-trifluoroethyl)carbamoyl]phenyl}[1,2,4]triazolo [1,5-a]pyridin-2-yl)amino]benzamide] | 3.05 |
| COc1cc(C(=O)N(C)CCN(C)C(=O)OC(C)(C)C)ccc1Nc1nc2ccc(-c3ccc(C(=O)NCC(F)(F)F)cc3)cn2n1 [Example 11.021, tert-butyl {2-[{3-methoxy-4-[(6-{4-[(2,2,2-trifluoroethyl)carbamoyl]phenyl}[1,2,4]triazolo [1,5-a]pyridin-2-yl)amino]benzoyl}(methyl)amino]ethyl}methyl-carbamate] | 3.5 |
| COc1cc(C(=O)NC(C)(C)CO)ccc1Nc1nc2ccc(-c3ccc(C(=O)NCC(C)C)cc3)cn2n1 [Example 11.022, N-(1-hydroxy-2-methylpropan-2-yl)-3-methoxy-4-[(6-{4-[(2-methylpropyl)carbamoyl]phenyl}[1,2,4]triazolo [1,5-a]pyridin-2-yl)amino]benzamide] | 4.36 |
| COc1cc(C(=O)NC(C)(C)CO)ccc1Nc1nc2ccc(-c3ccc(C(=O)NCCC(F)(F)F)cc3)cn2n1 [Example 11.023, N-(1-hydroxy-2-methylpropan-2-yl)-3-methoxy-4-[(6-{4-[(3,3,3-trifluoropropyl)carbamoyl]phenyl}[1,2,4]tria-zolo[1,5-a]pyridin-2-yl)amino]benzamide] | 5.22 |
| COc1cc(C(=O)NC(C)(C)CO)ccc1Nc1nc2ccc(-c3ccc(C(=O)NCC(F)(F)F)c(C)c3)cn2n1 [Example 11.024, 4-[2-({4-[(1-hydroxy-2-methylpropan-2-yl)carbamoyl]-2-methoxyphenyl}amino)[1,2,4]triazolo[1,5-a]pyridin-6-yl]-2-methyl-N-(2,2,2-trifluoroethyl)benzamide] | 3.84 |
| COc1cc(C(=O)NCC(C)(C)O)ccc1Nc1nc2ccc(-c3ccc(C(=O)NCCC(F)(F)F)cc3)cn2n1 [Example 11.025, N-(2-hydroxy-2-methylpropyl)-3-methoxy-4-[(6-{4-[(3,3,3-trifluoropropyl)carbamoyl]phenyl}[1,2,4]tria-zolo[1,5-a]pyridin-2-yl)amino]benzamide] | 7.31 |
| COc1cc(C(=O)NC(C)(C)CO)ccc1Nc1nc2ccc(-c3ccc(C(=O)NCC(F)(F)F)c(Cl)c3)cn2n1 [Example 11.026, 2-chloro-4-[2-({4-[(1-hydroxy-2-methylpropan-2-yl)carbamoyl]-2-methoxyphenyl}amino)[1,2,4]triazolo[1,5-a]pyridin-6-yl]-N-(2,2,2-trifluoroethyl)benzamide] | 4.08 |
| CCN(CC)C(=O)c1ccc(Nc2nc3ccc(-c4ccc(C(=O)NCC(C)(C)C)cc4)cn3n2)c(OC)c1 [Example 11.027, 4-[(6-{4-[(2,2-dimethylpropyl)carbamoyl]phenyl}[1,2,4]tria-zolo[1,5-a]pyridin-2-yl)amino]-N,N-diethyl-3-methoxybenzamide] | 35.8 |
| CCN(CC)C(=O)c1ccc(Nc2nc3ccc(-c4ccc(C(=O)NCC(F)(F)F)cc4)cn3n2)cc1 [Example 11.038, N,N-diethyl-4-[(6-{4-[(2,2,2-trifluoroethyl)carbamoyl]phenyl}[1,2,4]triazolo [1,5-a]pyridin-2-yl)amino]benzamide] | 10.5 |

Compounds with a lower IC50, results first:

| IC50 [nM] | Compound |
| --- | --- |
| 1.73 | COc1cc(C(=O)NC(C)(C)CO)ccc1Nc1nc2ccc(-c3ccc(C(=O)NCC(F)(F)F)cc3)cn2n1 [Example 11.017, N-(1-hydroxy-2-methylpropan-2-yl)-3-methoxy-4-[(6-{4-[(2,2,2-trifluoroethyl)carbamoyl]phenyl}[1,2,4]triazolo [1,5-a]pyridin-2-yl)amino]benzamide] |
| 1.03 | COc1cc(C(=O)NC(C)(C)CO)ccc1Nc1nc2ccc(-c3ccc(C(=O)NCC(F)(F)F)c(F)c3)cn2n1 [Example 11.018, 2-fluoro-4-[2-({4-[(1-hydroxy-2-methylpropan-2-yl)carbamoyl]-2-methoxyphenyl}amino)[1,2,4]triazolo[1,5-a]pyridin-6-yl]-N-(2,2,2-trifluoroethyl)benzamide] |
| 1.78 | COc1cc(C(=O)NCCO)ccc1Nc1nc2ccc(-c3ccc(C(=O)NCC(F)(F)F)cc3)cn2n1 [Example 11.019, N-(2-hydroxyethyl)-3-methoxy-4-[(6-{4-[(2,2,2-trifluoroethyl)carbamoyl]phenyl}[1,2,4]triazolo [1,5-a]pyridin-2-yl)amino]benzamide] |
| ≤ 1 | CCOc1cc(C(=O)NCCO)ccc1Nc1nc2ccc(-c3ccc(C(=O)NCC(F)(F)F)cc3)cn2n1 [Example 11.028, 3-ethoxy-N-(2-hydroxyethyl)-4-[(6-{4-[(2,2,2-trifluoroethyl)carbamoyl]phenyl}[1,2,4]triazolo [1,5-a]pyridin-2-yl)amino]benzamide] |
| ≤ 1 | CCOc1cc(C(=O)NC(C)(C)CO)ccc1Nc1nc2ccc(-c3ccc(C(=O)NCC(F)(F)F)cc3)cn2n1 [Example 11.029, 3-ethoxy-N-(1-hydroxy-2-methylpropan-2-yl)-4-[(6-{4-[(2,2,2-trifluoroethyl)carbamoyl]phenyl}[1,2,4]triazolo [1,5-a]pyridin-2-yl)amino]benzamide] |
| ≤ 1 | CCOc1cc(C(=O)NC(C)(C)C)ccc1Nc1nc2ccc(-c3ccc(C(=O)NCC(F)(F)F)cc3)cn2n1 [Example 11.030, N-tert-butyl-3-ethoxy-4-[(6-{4-[(2,2,2-trifluoroethyl)carbamoyl]phenyl}[1,2,4]triazolo [1,5-a]pyridin-2-yl)amino]benzamide] |
| ≤ 1 | CCNC(=O)c1ccc(Nc2nc3ccc(-c4ccc(C(=O)NCC(F)(F)F)cc4)cn3n2)c(OCC)c1 [Example 11.031, 3-ethoxy-N-ethyl-4-[(6-{4-[(2,2,2-trifluoroethyl)carbamoyl]phenyl}[1,2,4]triazolo [1,5-a]pyridin-2-yl)amino]benzamide] |
| ≤ 1 | CCOc1cc(C(=O)NCC(C)(C)O)ccc1Nc1nc2ccc(-c3ccc(C(=O)NCC(F)(F)F)cc3)cn2n1 [Example 11.032, 3-ethoxy-N-(2-hydroxy-2-methylpropyl)-4-[(6-{4-[(2,2,2-trifluoroethyl)carbamoyl]phenyl}[1,2,4]triazolo [1,5-a]pyridin-2-yl)amino]benzamide] |
| ≤ 1 | CCOc1cc(C(=O)N(C)CCO)ccc1Nc1nc2ccc(-c3ccc(C(=O)NCC(F)(F)F)cc3)cn2n1 [Example 11.033, 3-ethoxy-N-(2-hydroxyethyl)-N-methyl-4-[(6-{4-[(2,2,2-trifluoroethyl)carbamoyl]phenyl}[1,2,4]triazolo [1,5-a]pyridin-2-yl)amino]benzamide] |
| 1.38 | CCOc1cc(C(=O)NCC(C)(C)O)ccc1Nc1nc2ccc(-c3ccc(C(=O)NCCC(F)(F)F)cc3)cn2n1 [Example 11.034, 3-ethoxy-N-(2-hydroxy-2-methylpropyl)-4-[(6-{4-[(3,3,3-trifluoropropyl)carbamoyl]phenyl}[1,2,4]tria-zolo[1,5-a]pyridin-2-yl)amino]benzamide] |
| 1.92 | CCOc1cc(C(=O)NC(C)(C)CO)ccc1Nc1nc2ccc(-c3ccc(C(=O)NCC(C)C)cc3)cn2n1 [Example 11.035, 3-ethoxy-N-(1-hydroxy-2-methylpropan-2-yl)-4-[(6-{4-[(2-methylpropyl)carbamoyl]phenyl}[1,2,4]triazolo [1,5-a]pyridin-2-yl)amino]benzamide] |
| 2.58 | CCOc1cc(C(=O)NCC(C)(C)O)ccc1Nc1nc2ccc(-c3ccc(C(=O)NCC(C)C)cc3)cn2n1 [Example 11.036, 3-ethoxy-N-(2-hydroxy-2-methylpropyl)-4-[(6-{4-[(2-methylpropyl)carbamoyl]phenyl}[1,2,4]triazolo [1,5-a]pyridin-2-yl)amino]benzamide] |
| ≤ 1 | O=C(NCCO)c1ccc(Nc2nc3ccc(-c4ccc(C(=O)NCC(F)(F)F)cc4)cn3n2)c(OCC(F)(F)F)c1 [Example 11.037, N-(2-hydroxyethyl)-3-(2,2,2-trifluoroethoxy)-4-[(6-{4-[(2,2,2-trifluoroethyl)carbamoyl]phenyl}[1,2,4]triazolo [1,5-a]pyridin-2-yl)amino]benzamide] |
